# Test results reported in paper PMC10364322, “Evaluation of chronic drug-induced electrophysiological and cytotoxic effects using human-induced pluripotent stem cell-derived cardiomyocytes (hiPSC-CMs)” (Frontiers in Pharmacology, 2023).
# Read-outs that look alike come from different tables or passages of the source.
# Tested on: hiPSC-CMs (iCell-Cardiomyocytes^2)
# Summary of the method: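 Spontaneous field potentials and impedance recorded by MEA at 37°C, 5% CO2 in hiPSC-CM monolayers (50 K/well, fibronectin-coated), 5-min baseline before compound; final DMSO 0.1%. Values are percent change from baseline, mean ± SD, compared with DMSO by Wilcoxon-Mann Whitney, interpreted against DMSO tolerance intervals.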
smiles,measurement,setting,value
Cc1cn(-c2cc(NC(=O)c3ccc(C)c(Nc4nccc(-c5cccnc5)n4)c3)cc(C(F)(F)F)c2)cn1 [Nilotinib],BR (beat rate) % change from baseline,"0.01 µM, 2h",1±2%
same,"Beating below threshold, number of observations/total well numbers","0.01 µM, 2h",0/5
same,"Cessation of beating, number of observations/total well numbers","0.01 µM, 2h",0/5
same,"EAD, number of observations/total well numbers","0.01 µM, 2h",0/5
same,"FPD (field-potential duration), % change from baseline","0.01 µM, 2h",3.9±3.8%
same,"FPDc (field-potential duration corrected by beat-rate), % change from baseline","0.01 µM, 2h",4.1±4%
same,"Flat T-wave-like, number of observations/total well numbers","0.01 µM, 2h",0/5
same,BR (beat rate) % change from baseline,"0.01 µM, 24h",-1±3%
same,"Beating below threshold, number of observations/total well numbers","0.01 µM, 24h",0/5
same,"Cessation of beating, number of observations/total well numbers","0.01 µM, 24h",0/5
same,"EAD, number of observations/total well numbers","0.01 µM, 24h",0/5
same,"FPD (field-potential duration), % change from baseline","0.01 µM, 24h",6.4±4.8%
same,"FPDc (field-potential duration corrected by beat-rate), % change from baseline","0.01 µM, 24h",6.1±4.9%
same,"Flat T-wave-like, number of observations/total well numbers","0.01 µM, 24h",0/5
same,BR (beat rate) % change from baseline,"0.01 µM, 48h",-3±2%
same,"Beating below threshold, number of observations/total well numbers","0.01 µM, 48h",0/5
same,"Cessation of beating, number of observations/total well numbers","0.01 µM, 48h",0/5
same,"EAD, number of observations/total well numbers","0.01 µM, 48h",0/5
same,"FPD (field-potential duration), % change from baseline","0.01 µM, 48h",12.9±12.2%
same,"FPDc (field-potential duration corrected by beat-rate), % change from baseline","0.01 µM, 48h",11.9±11.5%
same,"Flat T-wave-like, number of observations/total well numbers","0.01 µM, 48h",0/5
same,BR (beat rate) % change from baseline,"0.01 µM, 72h",-8±2%
same,"Beating below threshold, number of observations/total well numbers","0.01 µM, 72h",0/5
same,"Cessation of beating, number of observations/total well numbers","0.01 µM, 72h",0/5
same,"EAD, number of observations/total well numbers","0.01 µM, 72h",0/5
same,"FPD (field-potential duration), % change from baseline","0.01 µM, 72h",10.1±2.4%
same,"FPDc (field-potential duration corrected by beat-rate), % change from baseline","0.01 µM, 72h",7.1±2.3%
same,"Flat T-wave-like, number of observations/total well numbers","0.01 µM, 72h",0/5
same,BR (beat rate) % change from baseline,"0.01 µM, 96h",-14±3%
same,"Beating below threshold, number of observations/total well numbers","0.01 µM, 96h",0/5
same,"Cessation of beating, number of observations/total well numbers","0.01 µM, 96h",0/5
same,"EAD, number of observations/total well numbers","0.01 µM, 96h",0/5
same,"FPD (field-potential duration), % change from baseline","0.01 µM, 96h",13.9±2.5%
same,"FPDc (field-potential duration corrected by beat-rate), % change from baseline","0.01 µM, 96h",8.7±2.6%
same,"Flat T-wave-like, number of observations/total well numbers","0.01 µM, 96h",0/5
same,BR (beat rate) % change from baseline,"0.1 µM, 2h",-1±1%
same,"Beating below threshold, number of observations/total well numbers","0.1 µM, 2h",0/5
same,"Cessation of beating, number of observations/total well numbers","0.1 µM, 2h",0/5
same,"EAD, number of observations/total well numbers","0.1 µM, 2h",0/5
same,"FPD (field-potential duration), % change from baseline","0.1 µM, 2h",8.9±9.8%
same,"FPDc (field-potential duration corrected by beat-rate), % change from baseline","0.1 µM, 2h",8.6±10.1%
same,"Flat T-wave-like, number of observations/total well numbers","0.1 µM, 2h",0/5
same,BR (beat rate) % change from baseline,"0.1 µM, 24h",-8±3%
same,"Beating below threshold, number of observations/total well numbers","0.1 µM, 24h",0/5
same,"Cessation of beating, number of observations/total well numbers","0.1 µM, 24h",0/5
same,"EAD, number of observations/total well numbers","0.1 µM, 24h",0/5
same,"FPD (field-potential duration), % change from baseline","0.1 µM, 24h",19.8±3.9 %
same,"FPDc (field-potential duration corrected by beat-rate), % change from baseline","0.1 µM, 24h",16.6±4.1 %
same,"Flat T-wave-like, number of observations/total well numbers","0.1 µM, 24h",0/5
same,BR (beat rate) % change from baseline,"0.1 µM, 48h",-8±4%
same,"Beating below threshold, number of observations/total well numbers","0.1 µM, 48h",0/5
same,"Cessation of beating, number of observations/total well numbers","0.1 µM, 48h",0/5
same,"EAD, number of observations/total well numbers","0.1 µM, 48h",0/5
same,"FPD (field-potential duration), % change from baseline","0.1 µM, 48h",15.4±2.6%
same,"FPDc (field-potential duration corrected by beat-rate), % change from baseline","0.1 µM, 48h",12.7±3%
same,"Flat T-wave-like, number of observations/total well numbers","0.1 µM, 48h",0/5
same,BR (beat rate) % change from baseline,"0.1 µM, 72h",-11±4%
same,"Beating below threshold, number of observations/total well numbers","0.1 µM, 72h",0/5
same,"Cessation of beating, number of observations/total well numbers","0.1 µM, 72h",0/5
same,"EAD, number of observations/total well numbers","0.1 µM, 72h",0/5
same,"FPD (field-potential duration), % change from baseline","0.1 µM, 72h",17.3±1.9%
same,"FPDc (field-potential duration corrected by beat-rate), % change from baseline","0.1 µM, 72h",12.5±1.7%
same,"Flat T-wave-like, number of observations/total well numbers","0.1 µM, 72h",0/5
same,BR (beat rate) % change from baseline,"0.1 µM, 96h",-18±4%
same,"Beating below threshold, number of observations/total well numbers","0.1 µM, 96h",0/5
same,"Cessation of beating, number of observations/total well numbers","0.1 µM, 96h",0/5
same,"EAD, number of observations/total well numbers","0.1 µM, 96h",0/5
same,"FPD (field-potential duration), % change from baseline","0.1 µM, 96h",19.6±3.2%
same,"FPDc (field-potential duration corrected by beat-rate), % change from baseline","0.1 µM, 96h",11.8±4.2%
same,"Flat T-wave-like, number of observations/total well numbers","0.1 µM, 96h",0/5
same,BR (beat rate) % change from baseline,"0.3 µM, 2h",-4±1%
same,"Beating below threshold, number of observations/total well numbers","0.3 µM, 2h",0/5
same,"Cessation of beating, number of observations/total well numbers","0.3 µM, 2h",0/5
same,"EAD, number of observations/total well numbers","0.3 µM, 2h",0/5
same,"FPD (field-potential duration), % change from baseline","0.3 µM, 2h",22.4±5.4 %
same,"FPDc (field-potential duration corrected by beat-rate), % change from baseline","0.3 µM, 2h",20.8±5.2 %
same,"Flat T-wave-like, number of observations/total well numbers","0.3 µM, 2h",0/5
same,BR (beat rate) % change from baseline,"0.3 µM, 24h",-17±2 %
same,"Beating below threshold, number of observations/total well numbers","0.3 µM, 24h",0/5
same,"Cessation of beating, number of observations/total well numbers","0.3 µM, 24h",0/5
same,"EAD, number of observations/total well numbers","0.3 µM, 24h",0/5
same,"FPD (field-potential duration), % change from baseline","0.3 µM, 24h",61.6±9.1 %
same,"FPDc (field-potential duration corrected by beat-rate), % change from baseline","0.3 µM, 24h",52.4±8.3 %
same,"Flat T-wave-like, number of observations/total well numbers","0.3 µM, 24h",0/5
same,BR (beat rate) % change from baseline,"0.3 µM, 48h",-13±1%
same,"Beating below threshold, number of observations/total well numbers","0.3 µM, 48h",0/5
same,"Cessation of beating, number of observations/total well numbers","0.3 µM, 48h",0/5
same,"EAD, number of observations/total well numbers","0.3 µM, 48h",0/5
same,"FPD (field-potential duration), % change from baseline","0.3 µM, 48h",46.7±15.8 %
same,"FPDc (field-potential duration corrected by beat-rate), % change from baseline","0.3 µM, 48h",39.9±14.5 %
same,"Flat T-wave-like, number of observations/total well numbers","0.3 µM, 48h",0/5
same,BR (beat rate) % change from baseline,"0.3 µM, 72h",-19±3 %
same,"Beating below threshold, number of observations/total well numbers","0.3 µM, 72h",0/5
same,"Cessation of beating, number of observations/total well numbers","0.3 µM, 72h",0/5
same,"EAD, number of observations/total well numbers","0.3 µM, 72h",0/5
same,"FPD (field-potential duration), % change from baseline","0.3 µM, 72h",59.3±17.6 %
same,"FPDc (field-potential duration corrected by beat-rate), % change from baseline","0.3 µM, 72h",48.5±15 %
same,"Flat T-wave-like, number of observations/total well numbers","0.3 µM, 72h",0/5
same,BR (beat rate) % change from baseline,"0.3 µM, 96h",-23±2%
same,"Beating below threshold, number of observations/total well numbers","0.3 µM, 96h",0/5
same,"Cessation of beating, number of observations/total well numbers","0.3 µM, 96h",0/5
same,"EAD, number of observations/total well numbers","0.3 µM, 96h",0/5
same,"FPD (field-potential duration), % change from baseline","0.3 µM, 96h",57±11 %
same,"FPDc (field-potential duration corrected by beat-rate), % change from baseline","0.3 µM, 96h",44.7±10.1 %
same,"Flat T-wave-like, number of observations/total well numbers","0.3 µM, 96h",1/5
same,wells displaying EAD-like events,1 µM,one of five wells
same,BR (beat rate) % change from baseline,"1 µM, 2h",-15±5 %
same,"Beating below threshold, number of observations/total well numbers","1 µM, 2h",0/5
same,"Cessation of beating, number of observations/total well numbers","1 µM, 2h",0/5
same,"EAD, number of observations/total well numbers","1 µM, 2h",1/5
same,"FPD (field-potential duration), % change from baseline","1 µM, 2h",80.6±28.8 %
same,"FPDc (field-potential duration corrected by beat-rate), % change from baseline","1 µM, 2h",70.6±24.2 %
same,"Flat T-wave-like, number of observations/total well numbers","1 µM, 2h",0/5
same,BR (beat rate) % change from baseline,"1 µM, 24h",-42±3 %
same,"Beating below threshold, number of observations/total well numbers","1 µM, 24h",0/5
same,"Cessation of beating, number of observations/total well numbers","1 µM, 24h",0/5
same,"EAD, number of observations/total well numbers","1 µM, 24h",1/5
same,"FPD (field-potential duration), % change from baseline","1 µM, 24h",264.1±51.3 %
same,"FPDc (field-potential duration corrected by beat-rate), % change from baseline","1 µM, 24h",200.7±36.5 %
same,"Flat T-wave-like, number of observations/total well numbers","1 µM, 24h",2/5
same,BR (beat rate) % change from baseline,"1 µM, 48h",-37±3 %
same,"Beating below threshold, number of observations/total well numbers","1 µM, 48h",0/5
same,"Cessation of beating, number of observations/total well numbers","1 µM, 48h",0/5
same,"EAD, number of observations/total well numbers","1 µM, 48h",1/5
same,"FPD (field-potential duration), % change from baseline","1 µM, 48h",209.3±40.8 %
same,"FPDc (field-potential duration corrected by beat-rate), % change from baseline","1 µM, 48h",164.9±31.8 %
same,BR (beat rate) % change from baseline,"1 µM, 72h",-44±3 %
same,"Beating below threshold, number of observations/total well numbers","1 µM, 72h",0/5
same,"Cessation of beating, number of observations/total well numbers","1 µM, 72h",0/5
same,"EAD, number of observations/total well numbers","1 µM, 72h",1/5
same,"FPD (field-potential duration), % change from baseline","1 µM, 72h",260.2±58.2 %
same,"FPDc (field-potential duration corrected by beat-rate), % change from baseline","1 µM, 72h",196.4±43 %
same,"Flat T-wave-like, number of observations/total well numbers","1 µM, 72h",1/5
same,BR (beat rate) % change from baseline,"1 µM, 96h",-43±3 %
same,"Beating below threshold, number of observations/total well numbers","1 µM, 96h",0/5
same,"Cessation of beating, number of observations/total well numbers","1 µM, 96h",0/5
same,"EAD, number of observations/total well numbers","1 µM, 96h",1/5
same,"FPD (field-potential duration), % change from baseline","1 µM, 96h",208.7±49.5 %
same,"FPDc (field-potential duration corrected by beat-rate), % change from baseline","1 µM, 96h",156.3±38.4 %
same,"Flat T-wave-like, number of observations/total well numbers","1 µM, 96h",1/5
same,prolongation of FPD,"1 and 0.3 µM, acute and chronic time points",significant dose-dependent prolongation of the FPD
same,cessation of beating,any concentration,no cessation of beating occurred in any concentration
